How the values were obtained:
[1] = Anti-myelofibrosis activity against mouse BAF3(transformed) cells harboring with JAK2 V617F mutant allografted in NOD/SCID mouse assessed as reduction in liver weight at 60 mg/kg, po qd for 20 days measured on day 25 relative to control; assay type: functional
[2] = Anti-myelofibrosis activity against mouse BAF3(transformed) cells harboring with JAK2 V617F mutant allografted in NOD/SCID mouse assessed as reduction in spleen weight at 60 mg/kg, po qd for 20 days measured on day 25 relative to control; assay type: functional
[3] = tested on: SET-2; experiment: Antiproliferative activity against human SET2 cells overexpressing JAK2 […] mutant assessed as reduction in cell growth after 72 hrs by MTT assay; assay type: functional, cell-based; conditions: SET-2, 72 h
[4] = biological target: T1, Tyrosine-protein kinase JAK2 (Homo sapiens, UniProt O60674); experiment: Inhibition of human JAK2 (808 to end residues) assessed as residual activity at 100 nM using KTFCGTPEYLAP as substrate after 40 mins in presence of [gamma33P]-ATP by scintillation counting based radiometric assay relative to control
T1 sequence (O60674 whole entry): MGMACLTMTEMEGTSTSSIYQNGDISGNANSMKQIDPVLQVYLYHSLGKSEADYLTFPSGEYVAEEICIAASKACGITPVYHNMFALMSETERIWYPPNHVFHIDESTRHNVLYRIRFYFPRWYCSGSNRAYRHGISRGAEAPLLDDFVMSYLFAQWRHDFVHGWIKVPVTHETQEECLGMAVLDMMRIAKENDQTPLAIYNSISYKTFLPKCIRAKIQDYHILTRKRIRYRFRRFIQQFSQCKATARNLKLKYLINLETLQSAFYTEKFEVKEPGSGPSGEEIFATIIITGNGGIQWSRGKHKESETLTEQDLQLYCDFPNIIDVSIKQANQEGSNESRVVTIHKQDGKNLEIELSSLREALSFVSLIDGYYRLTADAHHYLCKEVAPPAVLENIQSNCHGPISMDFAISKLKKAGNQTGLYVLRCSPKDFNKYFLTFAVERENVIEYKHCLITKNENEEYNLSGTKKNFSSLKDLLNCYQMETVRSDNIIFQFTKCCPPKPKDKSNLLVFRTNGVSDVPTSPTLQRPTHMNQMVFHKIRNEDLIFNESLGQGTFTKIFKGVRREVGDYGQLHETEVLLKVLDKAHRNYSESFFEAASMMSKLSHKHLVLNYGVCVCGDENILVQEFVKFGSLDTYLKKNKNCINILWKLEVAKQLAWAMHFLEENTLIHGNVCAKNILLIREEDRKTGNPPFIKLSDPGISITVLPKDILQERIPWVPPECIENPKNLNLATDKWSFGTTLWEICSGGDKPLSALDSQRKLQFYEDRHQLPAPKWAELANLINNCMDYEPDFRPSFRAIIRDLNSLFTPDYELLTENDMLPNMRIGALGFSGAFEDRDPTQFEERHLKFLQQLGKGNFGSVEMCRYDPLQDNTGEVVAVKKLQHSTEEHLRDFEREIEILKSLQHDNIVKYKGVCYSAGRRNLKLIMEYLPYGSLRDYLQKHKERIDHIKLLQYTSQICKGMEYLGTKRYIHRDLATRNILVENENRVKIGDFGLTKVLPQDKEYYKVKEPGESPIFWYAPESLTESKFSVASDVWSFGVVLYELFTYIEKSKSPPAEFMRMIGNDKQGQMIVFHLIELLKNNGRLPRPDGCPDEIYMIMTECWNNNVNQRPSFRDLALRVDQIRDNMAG

[5] = biological target: Receptor-type tyrosine-protein kinase FLT3 (Homo sapiens) (UniProt P36888); experiment: Inhibition of human FLT3 (564 to end residues) assessed as residual activity at 100 nM using EAIYAAPFAKKK as substrate after 40 mins in presence of [gamma33P]-ATP by scintillation counting based radiometric assay relative to control
[6] = biological target: T2, Tyrosine-protein kinase JAK3 (Homo sapiens, UniProt P52333); experiment: Inhibition of human JAK3 (781 to end residues) using GGEEEEYFELVKK as substrate after 40 mins in presence of [gamma33P]-ATP by scintillation counting based radiometric assay
T2 sequence (P52333 whole entry): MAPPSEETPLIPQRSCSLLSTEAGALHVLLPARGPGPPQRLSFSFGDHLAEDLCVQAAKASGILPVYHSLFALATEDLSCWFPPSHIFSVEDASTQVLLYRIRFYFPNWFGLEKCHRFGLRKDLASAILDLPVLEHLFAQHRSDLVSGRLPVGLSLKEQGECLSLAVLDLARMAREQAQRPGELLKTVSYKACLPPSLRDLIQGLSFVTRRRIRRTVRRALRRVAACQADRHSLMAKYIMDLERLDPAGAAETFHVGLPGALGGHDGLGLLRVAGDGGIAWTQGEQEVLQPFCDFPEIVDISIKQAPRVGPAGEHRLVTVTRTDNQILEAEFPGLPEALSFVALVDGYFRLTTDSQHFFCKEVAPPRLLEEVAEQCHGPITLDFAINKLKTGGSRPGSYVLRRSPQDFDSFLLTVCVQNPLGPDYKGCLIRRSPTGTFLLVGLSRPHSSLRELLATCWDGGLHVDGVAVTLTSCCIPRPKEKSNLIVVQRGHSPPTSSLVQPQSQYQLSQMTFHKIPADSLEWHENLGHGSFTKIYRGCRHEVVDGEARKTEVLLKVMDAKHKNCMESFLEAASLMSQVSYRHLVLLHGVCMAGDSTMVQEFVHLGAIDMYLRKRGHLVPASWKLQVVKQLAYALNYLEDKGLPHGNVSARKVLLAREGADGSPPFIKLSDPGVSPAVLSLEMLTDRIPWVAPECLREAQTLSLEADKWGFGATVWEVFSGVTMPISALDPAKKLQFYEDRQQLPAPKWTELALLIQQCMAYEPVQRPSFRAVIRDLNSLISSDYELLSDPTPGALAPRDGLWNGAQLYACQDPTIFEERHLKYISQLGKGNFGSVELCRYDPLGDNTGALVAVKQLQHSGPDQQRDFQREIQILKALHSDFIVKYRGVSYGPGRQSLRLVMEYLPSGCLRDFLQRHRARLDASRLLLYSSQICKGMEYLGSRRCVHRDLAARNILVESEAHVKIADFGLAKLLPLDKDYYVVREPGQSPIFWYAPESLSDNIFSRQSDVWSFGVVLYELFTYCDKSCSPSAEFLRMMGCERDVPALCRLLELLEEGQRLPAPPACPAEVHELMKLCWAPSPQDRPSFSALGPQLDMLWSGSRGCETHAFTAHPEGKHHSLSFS

[7] = Tmax in Sprague-Dawley rat at 5 mg/kg, po measured up to 24 hrs by LC/MS/MS analysis; assay type: ADME, organism-based; conditions: in vivo
[8] = biological target: T3, Receptor-type tyrosine-protein kinase FLT3 (Homo sapiens, UniProt P36888); experiment: Inhibition of human FLT3 (564 to end residues) using EAIYAAPFAKKK as substrate after 40 mins in presence of [gamma33P]-ATP by scintillation counting based radiometric assay
T3 sequence (P36888 whole entry): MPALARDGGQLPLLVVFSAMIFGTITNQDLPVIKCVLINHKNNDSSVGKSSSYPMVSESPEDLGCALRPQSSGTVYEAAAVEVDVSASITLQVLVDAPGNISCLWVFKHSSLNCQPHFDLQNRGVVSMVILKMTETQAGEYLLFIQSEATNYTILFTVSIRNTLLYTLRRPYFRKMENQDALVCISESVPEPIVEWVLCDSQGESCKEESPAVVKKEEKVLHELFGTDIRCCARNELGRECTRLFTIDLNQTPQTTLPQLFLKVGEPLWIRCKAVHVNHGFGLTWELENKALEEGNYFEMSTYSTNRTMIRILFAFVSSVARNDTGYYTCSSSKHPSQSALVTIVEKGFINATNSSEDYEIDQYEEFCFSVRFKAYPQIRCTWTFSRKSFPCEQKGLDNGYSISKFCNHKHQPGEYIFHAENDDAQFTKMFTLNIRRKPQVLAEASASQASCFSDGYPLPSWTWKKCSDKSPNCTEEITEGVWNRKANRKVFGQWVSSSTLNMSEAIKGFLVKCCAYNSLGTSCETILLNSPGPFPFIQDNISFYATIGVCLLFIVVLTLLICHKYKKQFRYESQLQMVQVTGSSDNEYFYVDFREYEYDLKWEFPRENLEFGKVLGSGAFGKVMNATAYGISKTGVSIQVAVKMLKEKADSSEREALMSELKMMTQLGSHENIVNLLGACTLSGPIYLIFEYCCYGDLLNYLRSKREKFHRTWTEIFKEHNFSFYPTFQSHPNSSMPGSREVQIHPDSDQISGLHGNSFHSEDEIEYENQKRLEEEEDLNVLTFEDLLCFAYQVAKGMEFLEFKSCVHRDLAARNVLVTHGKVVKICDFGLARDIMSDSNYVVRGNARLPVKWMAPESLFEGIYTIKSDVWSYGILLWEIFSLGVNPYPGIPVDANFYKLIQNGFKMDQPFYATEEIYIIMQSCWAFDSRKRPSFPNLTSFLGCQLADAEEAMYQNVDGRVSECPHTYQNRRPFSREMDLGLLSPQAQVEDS

[9] = organism: Homo sapiens; experiment: Selectivity ratio of IC50 for inhibition of human JAK3 (781 to end residues) to inhibition of human JAK2 (808 to end residues)
[10] = Oral bioavailability in Sprague-Dawley rat at 5 mg/kg measured up to 24 hrs by LC/MS/MS analysis; assay type: ADME, organism-based; conditions: in vivo
[11] = biological target: Cytochrome P450 3A4 (Homo sapiens, UniProt P08684); experiment: Inhibition of CYP3A4 (unknown origin); assay type: ADME
Chain of Cytochrome P450 3A4 (P08684 whole entry): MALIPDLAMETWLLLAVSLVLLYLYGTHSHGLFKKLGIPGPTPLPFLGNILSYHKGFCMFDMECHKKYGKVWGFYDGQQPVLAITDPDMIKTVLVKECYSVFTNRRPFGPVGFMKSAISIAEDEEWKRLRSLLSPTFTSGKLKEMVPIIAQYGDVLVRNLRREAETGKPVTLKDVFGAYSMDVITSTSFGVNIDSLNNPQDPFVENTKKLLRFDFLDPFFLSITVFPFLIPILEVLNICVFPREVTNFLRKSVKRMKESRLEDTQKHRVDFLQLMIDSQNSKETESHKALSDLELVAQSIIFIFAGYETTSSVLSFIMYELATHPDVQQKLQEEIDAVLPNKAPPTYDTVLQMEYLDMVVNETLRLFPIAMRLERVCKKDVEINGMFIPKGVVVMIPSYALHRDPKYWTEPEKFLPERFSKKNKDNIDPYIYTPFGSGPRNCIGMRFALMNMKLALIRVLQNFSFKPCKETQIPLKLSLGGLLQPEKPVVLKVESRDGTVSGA

[12] = AUC (0 to t) in Sprague-Dawley rat at 5 mg/kg, po measured up to 24 hrs by LC/MS/MS analysis; assay type: ADME, organism-based; set-up: dose 5 mg/kg, time < 24 hr, route oral; conditions: in vivo; for AUC(0-t) at 24 h: Sprague-Dawley
[13] = biological target: T4, Tyrosine-protein kinase JAK1 (Homo sapiens, UniProt P23458); experiment: Inhibition of human JAK1 (866 to end residues) GEEPLYWSFPAKK as substrate after 40 mins in presence of [gamma33P]-ATP by scintillation counting based radiometric assay
T4 sequence (P23458 whole entry): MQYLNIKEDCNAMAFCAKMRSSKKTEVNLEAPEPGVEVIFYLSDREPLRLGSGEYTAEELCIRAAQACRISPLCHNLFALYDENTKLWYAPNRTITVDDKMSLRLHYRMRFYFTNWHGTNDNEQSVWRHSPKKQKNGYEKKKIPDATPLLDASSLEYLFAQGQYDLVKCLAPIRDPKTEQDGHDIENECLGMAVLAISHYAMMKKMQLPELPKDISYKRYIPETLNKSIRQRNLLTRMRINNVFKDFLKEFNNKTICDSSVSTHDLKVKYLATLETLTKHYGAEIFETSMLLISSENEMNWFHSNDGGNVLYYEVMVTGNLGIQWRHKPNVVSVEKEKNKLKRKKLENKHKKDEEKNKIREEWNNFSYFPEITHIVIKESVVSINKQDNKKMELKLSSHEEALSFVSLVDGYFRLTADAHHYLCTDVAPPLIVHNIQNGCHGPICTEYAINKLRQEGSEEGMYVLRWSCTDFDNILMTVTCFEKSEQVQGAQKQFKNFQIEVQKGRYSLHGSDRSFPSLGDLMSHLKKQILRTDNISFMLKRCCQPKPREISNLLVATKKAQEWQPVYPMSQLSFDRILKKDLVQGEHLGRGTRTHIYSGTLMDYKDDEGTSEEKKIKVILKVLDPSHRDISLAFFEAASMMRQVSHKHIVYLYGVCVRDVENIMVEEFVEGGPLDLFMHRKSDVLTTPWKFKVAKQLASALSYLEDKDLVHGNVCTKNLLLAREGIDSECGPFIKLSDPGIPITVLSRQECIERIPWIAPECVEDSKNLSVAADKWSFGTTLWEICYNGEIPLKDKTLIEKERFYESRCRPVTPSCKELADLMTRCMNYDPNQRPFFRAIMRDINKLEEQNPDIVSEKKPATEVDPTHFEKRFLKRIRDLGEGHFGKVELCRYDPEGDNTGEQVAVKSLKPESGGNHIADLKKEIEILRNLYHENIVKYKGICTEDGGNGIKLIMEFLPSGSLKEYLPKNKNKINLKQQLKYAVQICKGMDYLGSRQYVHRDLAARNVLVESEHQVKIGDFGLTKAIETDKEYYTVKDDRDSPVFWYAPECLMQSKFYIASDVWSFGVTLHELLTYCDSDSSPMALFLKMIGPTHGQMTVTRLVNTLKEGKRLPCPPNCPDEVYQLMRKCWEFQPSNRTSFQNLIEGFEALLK

[14] = Terminal elimination half life in Sprague-Dawley rat at 5 mg/kg, po measured up to 24 hrs by LC/MS/MS analysis; assay type: ADME, organism-based; conditions: in vivo; for half-life: Sprague-Dawley, read-out: beta t1/2 (converted)
[15] = Cmax in Sprague-Dawley rat at 5 mg/kg, po measured up to 24 hrs by LC/MS/MS analysis; assay type: ADME, organism-based; set-up: dose 5 mg/kg, route oral; conditions: in vivo
[16] = tested on: MV4-11; experiment: Antiproliferative activity against FLT3-ITD-positive human MV4-11 cells assessed as reduction in cell growth after 72 hrs by MTT assay; assay type: functional, cell-based; conditions: MV4-11, 72 h
[17] = organism: Homo sapiens; experiment: Selectivity ratio of IC50 for inhibition of human JAK1 (866 to end residues) to inhibition of human JAK2 (808 to end residues)
[18] = biological target: T1, Tyrosine-protein kinase JAK2; experiment: Inhibition of human JAK2 (808 to end residues) using KTFCGTPEYLAP as substrate after 40 mins in presence of [gamma33P]-ATP by scintillation counting based radiometric assay
[19] = biological target: T5, Tyrosine-protein kinase JAK3 (Homo sapiens) (UniProt P52333); experiment: Inhibition of human JAK3 (781 to end residues) assessed as residual activity at 100 nM using GGEEEEYFELVKK as substrate after 40 mins in presence of [gamma33P]-ATP by scintillation counting based radiometric assay relative to control
T5 sequence (whole entry): T2 sequence (P52333 whole entry)

[20] = biological target: T4, Tyrosine-protein kinase JAK1; experiment: Inhibition of human JAK1 (866 to end residues) assessed as residual activity at 100 nM using GEEPLYWSFPAKK as substrate after 40 mins in presence of [gamma33P]-ATP by scintillation counting based radiometric assay relative to control
[21] = tested on: MOLM-13; experiment: Antiproliferative activity against FLT3-ITD-positive human MOLM13 cells assessed as reduction in cell growth after 72 hrs by MTT assay; assay type: functional, cell-based; conditions: MOLM-13, 72 h

| SMILES | Activity [4] [%] | Activity [5] [%] | IC50 [6] [nM] | Tmax ([7]; Sprague-Dawley, read-out: Tmax) [h] | IC50 [8] [nM] | Ratio IC50 [9] | bioavailability [10] [%] | IC50 [11] [nM] | AUC(0-t) at 24 h [12] [ng·h/mL] | IC50 [13] [nM] | half-life [14] [h] | Cmax ([15]; Sprague-Dawley, read-out: Cmax) [ng/mL] | IC50 [16] [nM] | Ratio IC50 [17] | IC50 [18] [nM] | Activity [19] [%] | Activity [20] [%] | IC50 [21] [nM] | also measured |
| --- | --- | --- | --- | --- | --- | --- | --- | --- | --- | --- | --- | --- | --- | --- | --- | --- | --- | --- | --- |
| Cc1cnc(Nc2ccc(OCCN3CCCC3)cc2)nc1Nc1cccc(S(=O)(=O)NC(C)(C)C)c1 [FEDRATINIB] | – | – | – | – | – | – | – | – | – | – | – | – | – | – | – | – | – | – | inhibition in vivo at 60 mg/kg [1]: 69.8%; inhibition in vivo at 60 mg/kg [2]: 24.7% |
| C1=N/C2=N/c3ccc(OCCN4CCCC4)c(c3)COC/C=C/COCc3cccc(c3)C(=C1)N2 [PACRITINIB] | – | – | – | – | – | – | – | – | – | – | – | – | – | – | – | – | – | – | IC50 [3]: 916 nM |

Now from value to molecule, other results behind:

| Activity [4] [%] | Activity [5] [%] | IC50 [6] [nM] | Tmax ([7]; Sprague-Dawley, read-out: Tmax) [h] | IC50 [8] [nM] | Ratio IC50 [9] | bioavailability [10] [%] | IC50 [11] [nM] | AUC(0-t) at 24 h [12] [ng·h/mL] | IC50 [13] [nM] | half-life [14] [h] | Cmax ([15]; Sprague-Dawley, read-out: Cmax) [ng/mL] | IC50 [16] [nM] | Ratio IC50 [17] | IC50 [18] [nM] | Activity [19] [%] | Activity [20] [%] | IC50 [21] [nM] | SMILES | also measured |
| --- | --- | --- | --- | --- | --- | --- | --- | --- | --- | --- | --- | --- | --- | --- | --- | --- | --- | --- | --- |
| 4 | 7 | 39 | 2.3 | 15 | 19 | 31 | > 100000 | 305 | 76 | 5.9 | 56.5 | 6.4 | 38 | 2 | 33 | 27 | 24 | CCCCN(C)C1CCN(c2ccc(Nc3ncc(C)c(-c4cnn(C(C)C)c4)n3)cc2F)CC1 | – |
| 5 | 5 | 103 | – | 11 | 34 | 45 | > 100000 | – | 121 | – | – | 4.3 | 40 | 3 | 44 | 24 | 50 | Cc1cnc(Nc2ccc(N3CCC(N(C)CCN4CCN(C)CC4)CC3)c(F)c2)nc1-c1cnn(C(C)C)c1 | Tmax ([7]; 24 h): 2.1 h; AUCt ([12]; 24 h): 2265 ng·h/mL; beta t1/2 ([14]; 24 h): 16 h; Cmax ([15]; 24 h): 2.3 ng/mL |
| 5 | 7 | 23 | 4.1 | 9 | 23 | 43 | > 100000 | 1510 | 47 | 7.8 | 88.9 | 8.3 | 47 | 1 | 31 | 22 | 82 | Cc1cnc(Nc2ccc(N3CCC(N(C)CCCO)CC3)c(F)c2)nc1-c1cnn(C(C)C)c1 | – |

— ChEMBL document CHEMBL4321837, “Discovery of Potent and Orally Effective Dual Janus Kinase 2/FLT3 Inhibitors for the Treatment of Acute Myelogenous Leukemia and Myeloproliferative Neoplasms” (J Med Chem, 2019)
